Reference: patent US20040023972A1, “Use of substituted imidazo[1,2-a]-pyridin-, -pyrimidin-and-pyrazin-3-yl-amine derivatives in the preparation of medicaments for inhibiting NOS” (Gruenenthal GmbH, priority 2000, published 2004)

Biological target: T1, NO synthase (Rattus norvegicus, UniProt P29476)
T1 construct: the supernatant was then removed by decantation and frozen in portions at −80° C; from tissue; host or cells: rat cerebellum, 20,000 g supernatant of homogenate
Experiment: HTS-NOS assay (NOS assay): conversion of radioactive arginine, cation-exchanger filter plate
Assay type: biochemical
Conditions: for inhibition at 10 µM: read-out: HTS-NOS assay: % inhibition (10 μM); for NOS assay % inhibition: Table 5, concentration not given
Summary of the method: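 Percent inhibition was derived by comparing remaining radioactive arginine with compound-free controls. Arginine retained on phosphate cation-exchanger filters was counted after citrulline washout, following a 5-60 min room-temperature (25 °C) reaction of labelled arginine, NADPH-containing medium and rat cerebellar homogenate supernatant.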

Row | Compound | inhibition at 10 µM [%] | further results
1 | CC(=O)N(c1c(-c2ccc(C)cc2)nc2cc(C)cc(C)n12)C(C)(C)CC(C)(C)C [Example 162, N-(5,7-dimethyl-2-p-tolyl-imidazo[1,2-a]pyridin-3-yl)-N-(1,1,3,3-tetramethylbutyl)-acetamide] | 67 | 
2 | COC(=O)CN(C(C)=O)c1c(-c2cccc(O)c2)nc2ccc(C)cn12 [Example 244, {acetyl-[2-(3-hydroxy-phenyl)-6-methyl-imidazo[1,2-a]pyridin-3-yl]-amino}-acetic acid methyl ester] | 50 | 
3 | Cc1cc(C)n2c(NC(C)(C)CC(C)(C)C)c(C)nc2c1 [Example 9, (1,1,3,3-Tetramethyl-butyl)-(2,5,7-trimethyl-imidazol[1,2-a]pyridin-3-yl)-amine] |  | HTS-NOS assay: % inhibition (10 μM): 59%
4 | CCCc1cccc2nc(-c3cccnc3)c(N(C(C)=O)C(C)(C)C)n12 [Example 265, N-tert-butyl-N-(5-propyl-2-pyridin-3-yl-imidazo[1,2-a]pyridin-3-yl)-acetamide] | 54 | 
5 | C#[N+]CCCCCCNc1c(-c2cccc3ccccc23)nc2cc(C)cc(C)n12 [Example 128, [6-(5,7-Dimethyl-2-naphthalen-1-yl-imidazo[1,2-a]pyridin-3-ylamino)-hexyl]-methylidyne-ammonium] |  | HTS-NOS assay: % inhibition (10 μM): 63%
6 | Cc1ccn2c(NC3CCCCC3)c(-c3ccccc3C(F)(F)F)nc2c1 [Example 13, Cyclohexyl-[7-methyl-2-(2-trifluorO-methyl-phenyl)-imidazo[1,2-a]pyridin-3-yl]-amine] |  | HTS-NOS assay: % inhibition (10 μM): 57%
7 | CC(=O)N(c1c(-c2ccc(F)cc2Cl)nc2ccccn12)C(C)(C)C [Example 291, N-tert-butyl-N-[2-(2-chloro-4-fluoro-phenyl)-imidazo[1,2-a]pyridin-3-yl]-acetamide] | 53 | 
8 | Cc1ccn2c(NC3CCCCC3)c(-c3cccs3)nc2c1 [Example 11, Cyclohexyl-(7-methyl-2-thiophen-2-yl-imidazo[1,2-a]pyridin-3-yl)-amine] | 60 | 
9 | CC(=O)N(c1c(C2CCCCC2)nc2cc(C)cc(C)n12)C(C)(C)C [Example 157, N-tert-butyl-N-(2-cyclohexyl-5,7-dimethyl-imidazo[1,2-a]pyridin-3-yl)-acetamide] | 63 | 
10 | Cc1ccn2c(NC(C)(C)CC(C)(C)C)c(-c3ccc(-c4ccccc4Cl)o3)nc2c1 [Example 80, {2-[5-(2-Chlorophenyl)-furan-2-yl]-7-methyl-imidazo[1,2-a]pyridin-3-yl}-(1,1,3,3-tetramethyl-butyl)-amine] | 52 | 
11 | CC(=O)N(c1c(-c2ccncc2)nc2cc(C)ccn12)C(C)(C)CC(C)(C)C [Example 166, N-(7-methyl-2-pyridin-4-yl-imidazo[1,2-a]pyridin-3-yl)-N-(1,1,3,3-tetramethylbutyl)-acetamide] | 61 | 
12 | Cc1cccn2c(NC(C)(C)C)c(C3CCCCC3)nc12 [Example 123, Tert-butyl-(2-cyclohexyl-8-methyl-imidazo[1,2-a]pyridin-3-yl)-amine] | 53 | 
13 | CC(=O)N(c1c(-c2ccccn2)nc2cc(C)cc(C)n12)C1CCCCC1 [Example 259, N-cyclohexyl-N-(5,7-dimethyl-2-pyridin-2-yl-imidazo[1,2-a]pyridin-3-yl)-acetamide] | 73 | 
14 | CC(=O)OCc1ccc(-c2nc3cc(C)ccn3c2NC2CCCCC2)o1 [Example 58, Acetic acid 5-(3-cyclohexylamino-7-methyl-imidazo[1,2-a]pyridin-2-yl)-furan-2-yl methyl ester] |  | HTS-NOS assay: % inhibition (10 μM): 64%
15 | Cc1ccn2c(NC3CCCCC3)c(-c3ccc(C(=O)O)o3)nc2c1 [Example 91, 5-(3-Cyclohexylamino-7-methyl-imidazo[1,2-a]pyridin-2-yl)-furan-2-carboxylic acid] | 64 | 
16 | CC(=O)N(c1c(-c2cccc(Cl)c2Cl)nc2cc(C)cc(C)n12)C(C)(C)CC(C)(C)C [Example 193, N-[2-(2,3-dichloro-phenyl)-5,7-dimethyl-imidazo[1,2-a]pyridin-3-yl]-N-(1,1,3,3-tetramethyl-butyl)-acetamide] | 55 | 
17 | CC(=O)N(c1c(-c2ccc([N+](=O)[O-])o2)nc2cc(C)cc(C)n12)C1CCCCC1 [Example 173, N-cyclohexyl-N-[5,7-dimethyl-2-(5-nitro-furan-2-yl)-imidazo[1,2-a]pyridin-3-yl]-acetamide] | 67 | 
18 | CC(=O)N(c1c(-c2ccc(C(=O)O)s2)nc2ccccn12)C1CCCCC1 [Example 229, 5-[3-(acetyl-cyclohexyl-amino)-imidazo[1,2-a]pyridin-2-yl]-thiophene-2-carboxylic acid] | 59 | 
19 | C#[N+]CCCCCCNc1c(-c2ccc[nH]2)nc2cc(C)cc(C)n12 [Example 4, {6-[5,7-Dimethyl-2-(1H-pyrrol-2-yl)-imidazo[1,2-a]pyridin-3-ylamino]-hexyl}-methylidyne-ammonium] |  | HTS-NOS assay: % inhibition (10 μM): 54%

Row | Compound | inhibition at 10 µM [%] | further results
20 | CC(=O)OCc1ccc(-c2nc3ncccn3c2N(C(C)=O)C(C)(C)CC(C)(C)C)o1 [Example 249, acetic acid 5-{3-[acetyl-(1,1,3,3-tetramethyl-butyl)-amino]-imidazo[1,2-a]-pyrimidin-2-yl}-furan-2-yl methyl ester] |  | HTS-NOS assay: % inhibition (10 μM): 54%
21 | Cc1cc(C)n2c(NC(C)(C)CC(C)(C)C)c(-c3ccsc3)nc2c1.Cl [Example 312, (5,7-Dimethyl-2-thiophen-3-yl-imidazo[1,2-a]-pyridin-3-yl)-(1,1,3,3-tetramethyl-butyl)-amine hydrochloride] |  | NOS assay % inhibition: 74%
22 | Cc1cc(C)n2c(NC(C)(C)CC(C)(C)C)c(-c3ccoc3)nc2c1.Cl [Example 308, (2-Furan-3-yl-5,7-dimethyl-imidazo[1,2-a]-pyridin-3-yl)-(1,1,3,3-tetramethyl-butyl)-amine hydrochloride] |  | NOS assay % inhibition: 50%
23 | COc1ccc(-c2nc3cc(C)ccn3c2N(C(C)=O)c2c(C)cccc2C)cc1OC [Example 207, N-[2-(3,4-dimethoxy-phenyl)-7-methyl-imidazo[1,2-a]pyridin-3-yl]-N-(2,6-dimethyl-phenyl)-acetamide] | 51 | 
24 | CC(=O)N(c1c(-c2cccs2)nc2c(Cl)cc(Cl)cn12)C(C)(C)C [Example 277, N-tert-butyl-N-(6,8-dichloro-2-thiophen-2-yl-imidazo[1,2-a]pyridin-3-yl)-acetamide] | 53 | 
25 | Cc1ccn2c(NC(C)(C)C)c(-c3ccc(C4OCCO4)o3)nc2c1 [Example 65, Tert-butyl-[2-(5-[1,3]dioxolan-2-yl-furan-2-yl)-7-methyl-imidazo[1,2-a]pyridin-3-yl]-amine] | 62 | 
26 | CC(=O)N(c1c(C)cccc1C)c1c(-c2ccccc2F)nc2cc(C)ccn12 [Example 209, N-(2,6-dimethyl-phenyl)-N-[2-(2-fluoro-phenyl)-7-methyl-imidazo[1,2-a]pyridin-3-yl]-acetamide] | 62 | 
27 | CCCCNc1c(-c2ccc(Cl)cc2Cl)nc2ccc(C)cn12 [Example 135, Butyl-[2-(2,4-dichloro-phenyl)-6-methyl-imidazo[1,2-a]pyridin-3-yl]-amine] | 50 | 
28 | Cc1cc(C)n2c(NC3CCCC3)c(-c3ccc(Br)cc3F)nc2c1.Cl [Example 304, [2-(4-Bromo-2-fluoro-phenyl)-5,7-dimethyl-imidazo[1,2-a]pyridin-3-yl]-cyclopentyl-amine hydrochloride] |  | NOS assay % inhibition: 56%
29 | C#[N+]CCCCCCN(C(C)=O)c1c(-c2ccccc2OC)nc2cc(C)cc(C)n12 [Example 240, (6-{acetyl-[2-(2-methoxy-phenyl)-5,7-dimethyl-imidazo[1,2-a]pyridin-3-yl]-amino}-hexyl)-methylidyne-ammonium] |  | HTS-NOS assay: % inhibition (10 μM): 61%
30 | CCCc1cccc2nc(-c3cccs3)c(N(C(C)=O)C(C)(C)C)n12 [Example 278, N-tert-butyl-N-(5-propyl-2-thiophen-2-yl-imidazo[1,2-a]pyridin-3-yl)-acetamide] | 55 | 
31 | CC(=O)N(c1c(C2CCCCC2)nc2cc(C)cc(C)n12)C(C)(C)CC(C)(C)C [Example 219, N-(2-cyclohexyl-5,7-dimethyl-imidazo[1,2-a]pyridin-3-yl)-N-(1,1,3,3-tetramethyl-butyl)-acetamide] | 62 | 
32 | Cc1ccn2c(NC(C)(C)CC(C)(C)C)c(-c3ccccc3F)nc2c1 [Example 17, [2-(2-Fluoro-phenyl)-7-methyl-imidazo[1,2-a]pyridin-3-yl]-(1,1,3,3-tetramethyl-butyl)-amine] | 51 | 
33 | CC(=O)OCc1ccc(-c2nc3cc(C)ccn3c2N(C(C)=O)C2CCCCC2)o1 [Example 167, acetic acid 5-[3-(acetyl-cyclohexyl-amino)-7-methyl-imidazo[1,2-a]pyridin-2-yl]-furan-2-yl methyl ester] |  | HTS-NOS assay: % inhibition (10 μM): 68%
34 | CC(=O)N(c1c(-c2ccc([N+](=O)[O-])o2)nc2cc(C)ccn12)C(C)(C)C [Example 198, N-tert-butyl-N-[7-methyl-2-(5-nitro-furan-2-yl)-imidazo[1,2-a]pyridin-3-yl]-acetamide] | 54 | 
35 | CC(=O)N(c1c(-c2ccccn2)nc2cc(C)ccn12)C(C)(C)C [Example 191, N-tert-butyl-N-(7-methyl-2-pyridin-2-yl-imidazo[1,2-a]pyridin-3-yl)-acetamide] | 57 | 
36 | C#[N+]CCCCCCNc1c(-c2ccccc2C(F)(F)F)nc2cc(C)cc(C)n12 [Example 75, {6-[5,7-Dimethyl-2-(2-trifluorO-methyl-phenyl)-imidazo[1,2-a]pyridin-3-ylamino]-hexyl}-methylidyne-ammonium] |  | HTS-NOS assay: % inhibition (10 μM): 56%
37 | C#[N+]CCCCCCNc1c(C2CCCCC2)nc2cc(C)cc(C)n12 [Example 88, [6-(2-Cyclohexyl-5,7-dimethyl-imidazo[1,2-a]pyridin-3-ylamino)-hexyl]-methylidyne-ammonium] |  | HTS-NOS assay: % inhibition (10 μM): 57%
